The record followed here is ChEMBL document CHEMBL5233229, “Recent advances in the development of ubiquitin-specific-processing protease 7 (USP7) inhibitors” (Eur J Med Chem, 2020).

Assay [1] addresses T1, Ubiquitin carboxyl-terminal hydrolase 7 (Homo sapiens, UniProt Q93009). Briefly: Inhibition of USP7 (unknown origin) by Ub-PLA2 assay.
Assay [2] deals with T1, Ubiquitin carboxyl-terminal hydrolase 7. The experiment in a line: Inhibition of human USP7 using ubiquitin-Rh110 as substrate incubated for 30 mins by Fluorometric plate reader analysis.
Assay [3] deals with T2, Ubiquitin carboxyl-terminal hydrolase 47 (Homo sapiens, UniProt Q96K76).
T2 sequence (Q96K76 whole entry): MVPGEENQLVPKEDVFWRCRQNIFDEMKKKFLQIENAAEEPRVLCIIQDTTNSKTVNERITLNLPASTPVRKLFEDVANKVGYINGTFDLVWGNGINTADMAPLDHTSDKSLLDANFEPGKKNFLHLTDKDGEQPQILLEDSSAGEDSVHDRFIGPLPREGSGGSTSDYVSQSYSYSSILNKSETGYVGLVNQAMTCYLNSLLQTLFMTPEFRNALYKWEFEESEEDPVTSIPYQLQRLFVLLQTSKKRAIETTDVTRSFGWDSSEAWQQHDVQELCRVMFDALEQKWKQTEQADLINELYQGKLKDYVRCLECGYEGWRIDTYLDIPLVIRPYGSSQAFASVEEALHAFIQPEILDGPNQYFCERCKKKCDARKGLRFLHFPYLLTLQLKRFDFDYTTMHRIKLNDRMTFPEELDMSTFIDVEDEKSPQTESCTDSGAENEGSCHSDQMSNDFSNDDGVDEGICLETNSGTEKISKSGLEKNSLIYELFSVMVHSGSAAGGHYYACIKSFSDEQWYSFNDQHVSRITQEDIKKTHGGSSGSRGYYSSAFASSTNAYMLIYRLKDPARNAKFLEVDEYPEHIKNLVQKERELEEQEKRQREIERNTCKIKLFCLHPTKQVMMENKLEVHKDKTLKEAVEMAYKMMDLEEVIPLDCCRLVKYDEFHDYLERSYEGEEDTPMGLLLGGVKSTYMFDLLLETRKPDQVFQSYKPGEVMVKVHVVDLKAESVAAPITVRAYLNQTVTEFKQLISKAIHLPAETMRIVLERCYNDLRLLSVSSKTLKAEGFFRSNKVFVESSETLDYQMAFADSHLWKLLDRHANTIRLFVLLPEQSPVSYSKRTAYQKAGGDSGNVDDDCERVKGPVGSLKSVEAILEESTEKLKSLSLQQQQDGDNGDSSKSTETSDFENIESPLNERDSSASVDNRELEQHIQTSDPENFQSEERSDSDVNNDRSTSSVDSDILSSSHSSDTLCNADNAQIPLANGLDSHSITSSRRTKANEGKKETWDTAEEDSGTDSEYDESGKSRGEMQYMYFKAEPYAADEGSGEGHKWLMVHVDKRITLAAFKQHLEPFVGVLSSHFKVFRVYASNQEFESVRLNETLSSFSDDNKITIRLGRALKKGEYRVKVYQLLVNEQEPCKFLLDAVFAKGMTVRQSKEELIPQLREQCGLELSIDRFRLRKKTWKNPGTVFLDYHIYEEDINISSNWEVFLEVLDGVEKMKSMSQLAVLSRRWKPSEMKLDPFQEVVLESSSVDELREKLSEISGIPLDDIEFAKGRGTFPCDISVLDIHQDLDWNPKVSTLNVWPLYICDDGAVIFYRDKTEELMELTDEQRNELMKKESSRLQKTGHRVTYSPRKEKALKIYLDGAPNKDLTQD
The experiment in a line: Inhibition of USP47 (unknown origin).

For another assay, the system named is HCT-116. Briefly: Anticancer activity against human HCT-116 cells assessed as cell growth inhibition incubated for 6 days by MTT assay. It counts as functional. The note with it: HCT-116, 144 h, time 6 day, read-out: LD50 (the source's name). In general terms: Tetrazolium assays rely on reduction of a dye to a coloured formazan, in cell work by metabolically active cells.

Assay [4] is described as follows: Inhibition of USP2a (unknown origin). Further details: species or system Homo sapiens.
For assay [5], the target named is T1, Ubiquitin carboxyl-terminal hydrolase 7. Briefly: Inhibition of human USP7 using Ub-AMC as substrate.
For assay [6] the target is unchanged. Briefly: Inhibition of human USP7 using human N-terminal GST-tagged UBA52 as substrate preincubated for 10 mins followed by substrate addition measured after 45 mins by coomassie brilliant blue staining-based SDS-PAGE analysis.

T1 sequence (Q93009 whole entry): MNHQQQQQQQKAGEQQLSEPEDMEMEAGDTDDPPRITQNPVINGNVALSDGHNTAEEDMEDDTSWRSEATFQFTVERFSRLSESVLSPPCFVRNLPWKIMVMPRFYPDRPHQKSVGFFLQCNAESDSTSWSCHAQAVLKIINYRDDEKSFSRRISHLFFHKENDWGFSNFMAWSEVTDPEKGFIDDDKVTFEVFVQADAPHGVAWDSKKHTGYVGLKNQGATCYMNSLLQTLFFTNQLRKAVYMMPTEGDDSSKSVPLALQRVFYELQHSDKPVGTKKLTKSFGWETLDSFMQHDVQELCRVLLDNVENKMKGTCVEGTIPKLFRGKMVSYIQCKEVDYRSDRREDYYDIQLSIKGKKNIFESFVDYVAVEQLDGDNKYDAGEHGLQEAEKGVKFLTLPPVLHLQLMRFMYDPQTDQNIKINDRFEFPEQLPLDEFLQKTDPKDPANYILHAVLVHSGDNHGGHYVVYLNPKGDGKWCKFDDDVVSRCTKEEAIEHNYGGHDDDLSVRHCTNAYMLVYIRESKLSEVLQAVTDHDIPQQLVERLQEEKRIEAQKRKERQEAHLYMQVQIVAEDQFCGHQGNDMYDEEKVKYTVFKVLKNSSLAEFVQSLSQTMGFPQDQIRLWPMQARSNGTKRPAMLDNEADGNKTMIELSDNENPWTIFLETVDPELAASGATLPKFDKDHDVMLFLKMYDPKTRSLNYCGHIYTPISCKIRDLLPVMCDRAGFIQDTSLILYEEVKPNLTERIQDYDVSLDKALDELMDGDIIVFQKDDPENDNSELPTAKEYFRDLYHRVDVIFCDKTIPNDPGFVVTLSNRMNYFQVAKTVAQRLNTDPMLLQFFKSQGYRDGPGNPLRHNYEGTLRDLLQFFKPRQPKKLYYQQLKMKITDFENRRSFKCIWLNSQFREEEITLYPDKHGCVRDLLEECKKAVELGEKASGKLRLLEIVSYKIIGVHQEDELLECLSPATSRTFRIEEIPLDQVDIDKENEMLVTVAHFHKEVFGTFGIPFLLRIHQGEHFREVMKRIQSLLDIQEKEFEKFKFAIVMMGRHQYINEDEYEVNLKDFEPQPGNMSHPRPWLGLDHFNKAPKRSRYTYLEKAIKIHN

On to `CCc1cc([N+](=O)[O-])c(Sc2cccc(Cl)c2Cl)s1`, for which the 50% inhibitory concentration (IC50) – broadly, the concentration at which inhibition is half-maximal – in assay [1] was more than 50 µM.
In assay [2], `C[C@H](C1=CC(=O)c2cc3c(cc2C1=O)C(=O)c1occ2c1[C@@]3(C)CCC2)C1=CC(=O)c2cc3c(cc2C1=O)[C@]1(C)CCCc2coc(c21)C3=O` displayed a 50% inhibitory concentration (IC50) of 0.49 µM.
Same read-out and setting: then `C[C@@]12CCCc3coc(c31)C(=O)c1cc3c(cc12)C(=O)C=C([C@]12CCC[C@@]4(C)c5cc6c(OS(=O)(=O)O)ccc(O)c6cc5C(=O)O[C@]14C(=O)OC2)C3=O`, with 2 µM; and `C[C@@]12CCCc3c(CCO)oc(c31)C(=O)c1cc3c(cc12)C(=O)C=CC3=O`, with 1.4 µM.
`C[C@@]12CCCc3coc(c31)Cc1cc3c(cc12)C(=O)C(C1=CC(=O)c2cc4c(cc2C1=O)C(=O)c1occ2c1[C@@]4(C)CCC2)=CC3=O` came in with a 50% inhibitory concentration (IC50) in assay [2] of 0.47 µM.
Turning to `N#CNc1nc2c(nc1C#N)C(=O)c1ccccc1-2`, the IC50 in assay [3] was more than 100 µM.
As for `CC(=O)c1cc([N+](=O)[O-])c(Sc2cc(Cl)cc(Cl)c2)s1`, the concentration for half-maximal inhibition (IC50) in assay [1] was 6.4 µM.
In the case of `C[C@H](CC(=O)O)[C@H]1CC[C@H]2[C@@H]3CC[C@@H]4CC(=O)CC[C@]4(C)[C@H]3CC[C@]12C`, the CC50 with HCT-116 was more than 50 µM. This compound also showed a concentration for half-maximal inhibition (IC50) in assay [4] of 32 µM.
In assay [1], `CC(=O)c1cc([N+](=O)[O-])c(Sc2ccccc2Cl)s1` came in with an IC50 of 12.9 µM. This counts as double-digit micromolar.
Regarding `C[C@@]12CCCc3coc(c31)C(=O)c1cc3c(cc12)CC1=C2N(CCS1(=O)=O)[C@@H](O)C[C@]23O`, the 50% inhibitory concentration (IC50) in assay [2] is more than 5 µM.
Same read-out and setting: the value for `C[C@@]12CCC(=O)c3coc(c31)C(=O)c1cc3c(cc12)C(=O)C=CC3=O` [HELENAQUINONE] was 1.3 µM.
As to `COC(=O)C[C@@H](C)[C@H]1CC[C@H]2[C@@H]3CC[C@@H]4C[C@H](O)CC[C@]4(C)[C@H]3CC[C@]12C`, in the assay on HCT-116, the CC50 was found to be 20.5 µM. This compound returned a half-maximal inhibitory concentration (IC50) in assay [4] of more than 50 µM.
Turning to `N#Cc1nc2c(nc1C#N)C1(OCCO1)c1ccccc1-2`, the IC50 in assay [3] and in assay [5] was more than 100 µM throughout.
Consider `C[C@H](CC(=O)NCC#N)[C@H]1CC[C@H]2[C@@H]3CC[C@@H]4C[C@H](O)CC[C@]4(C)[C@H]3C[C@H](O)[C@]12C`, for which, in the assay with HCT-116, the CC50 is 28 µM. This compound also returned an IC50 in assay [4] of 7.4 µM.
For `C[C@@]12CCCc3coc(c31)C(=O)c1cc3c(cc12)C(=O)C=C(c1cc(OS(=O)(=O)O)c2cc4c(cc2c1O)C(=O)c1occ2c1[C@@]4(C)CCC2)C3=O`, in assay [2], the IC50 was found to be 1.2 µM. In other words, the single-digit micromolar range.
Regarding `N#Cc1nc2c(nc1N1CCC(F)(F)CC1)-c1ccccc1C2=O`, in assay [3], the IC50 is more than 100 µM.
`COc1nc2c(nc1C#N)C(=O)c1ccccc1-2` displayed an IC50 in assay [3] of more than 100 µM.
On to `C[C@H](CC(=O)O)[C@H]1CC[C@H]2[C@@H]3[C@H](O)C[C@@H]4C[C@H](O)CC[C@]4(C)[C@H]3C[C@H](O)[C@]12C`, for which, in the assay with HCT-116, the CC50 was more than 50 µM.
`C[C@@]12CCCc3coc(c31)C(=O)c1cc3c(cc12)CC1=C2N(CCS1(=O)=O)[C@H](O)C[C@@]23O` showed a half-maximal inhibitory concentration (IC50) in assay [2] of more than 5 µM.
As to `CC1(C)CCC2(C(=O)O)CCC3=C([C@@H](CCl)C[C@@H]4[C@@]5(C)C[C@H](O)[C@H](O)[C@](C)(C(=O)O)[C@@H]5CC[C@]34C)[C@@H]2C1` (single isomer, unassigned), the half-inhibitory concentration (IC50) in assay [6] is more than 50 µM.
On the same count and under the same terms, the value for `CC1(C)CC[C@]2(C(=O)O)CC[C@]3(C)C(=CC[C@@H]4[C@@]5(C)CC[C@H](O)[C@@](C)(CO)[C@@H]5CC[C@]43C)[C@@H]2C1` [HEDERAGENIN] was 33.5 µM.
In turn, `C[C@@]12CCCc3coc(c31)C(=O)c1cc3c(cc12)[C@@]1(O)C[C@@H](O)N2CCS(=O)(=O)C(=C21)C3=O` had an IC50 in assay [2] of more than 5 µM.
In the case of `C[C@H](CC(N)=O)[C@H]1CC[C@H]2[C@@H]3CC[C@@H]4C[C@H](O)CC[C@]4(C)[C@H]3CC[C@]12C`, the CC50 with HCT-116 amounted to 24.5 µM. This compound yielded a concentration for half-maximal inhibition (IC50) in assay [4] of 27.9 µM.
Regarding `N#Cc1nc2c(nc1C#N)-c1ccc(F)cc1C2=O`, in assay [3], the IC50 came to 4.3 µM. That is a single-digit micromolar value.
In turn, `CC(=O)c1cc([N+](=O)[O-])c(Sc2ccc(Cl)cc2Cl)s1` showed a half-maximal inhibitory concentration (IC50) in assay [1] of 6.5 µM.
`C[C@@]12CCCc3coc(c31)C(=O)c1cc3c(cc12)[C@]1(O)C[C@H](O)N2CCS(=O)(=O)C(=C21)C3=O` gave a concentration for half-maximal inhibition (IC50) in assay [2] of more than 5 µM.
`CC1(C)CC[C@]2(C(=O)O)[C@H](O)C[C@]3(C)C(=CC[C@@H]4[C@@]5(C)C[C@H](O)[C@H](O)[C@@](C)(CO)[C@@H]5CC[C@]43C)[C@@H]2C1` displayed a half-inhibitory concentration (IC50) in assay [6] of more than 50 µM.
Consider `COCCOc1nc2c(nc1C#N)C(=O)c1ccccc1-2`, for which, in assay [3], the IC50 was more than 100 µM.
In the case of `CC(=O)c1cc([N+](=O)[O-])c(Sc2cccc(Cl)c2)s1`, the midpoint of inhibition in assay [1], the IC50, lay at 7 µM. In other words, the single-digit micromolar range.
Consider `CC(=O)O[C@@H]1CC[C@@]2(C)[C@H](CC[C@@H]3[C@@H]2CC[C@]2(C)[C@@H]([C@H](C)CC(=O)O)CC[C@@H]32)C1`, for which, in the assay on HCT-116, the CC50 was 23.2 µM. This compound came in with an IC50 in assay [4] of 5.8 µM.
Turning to `CC(=O)c1cc([N+](=O)[O-])c(Sc2ccc(Cl)cc2)s1`, the half-maximal inhibitory concentration (IC50) in assay [1] amounted to 11.8 µM.
On the same count and under the same terms, then `CC(O)c1cc([N+](=O)[O-])c(Sc2ccc(Cl)cc2Cl)s1` (stereo unspecified), with 20.1 µM.
Compound `C[C@H]1[C@H](C)CC[C@]2(C(=O)O)CC[C@]3(C)C(=CC[C@@H]4[C@@]5(C)C[C@@H](O)[C@H](O)C(C)(C)[C@@H]5CC[C@]43C)[C@H]12` [COROSOLIC ACID] displayed an IC50 in assay [6] of 22.7 µM.
In the case of `C[C@H](CC(=O)NCC(=O)O)[C@H]1CC[C@H]2[C@@H]3CC[C@@H]4C[C@H](O)CC[C@]4(C)[C@H]3CC[C@]12C`, the CC50 in the assay on HCT-116 is more than 100 µM. Besides, the IC50 in assay [4] was more than 50 µM.
Turning to `N#Cc1nc2c(nc1N)-c1ccccc1C2=O`, the 50% inhibitory concentration (IC50) in assay [3] was more than 100 µM.
In turn, `C[C@@]12CCCc3coc(c31)C(=O)c1cc3c(cc12)C(=O)C=C(C1=CC(=O)c2cc4c(cc2C1=O)C(=O)c1occ2c1[C@@]4(C)CCC2)C3=O` had a half-maximal inhibitory concentration (IC50) in assay [2] of 0.35 µM. In other words, the sub-micromolar range.
For `CCCCc1cc([N+](=O)[O-])c(Sc2ccc(Cl)cc2Cl)s1`, in assay [1], it took 13.9 µM to reach half-maximal inhibition (IC50).
For `C[C@H](CC(=O)NCCS(=O)(=O)O)[C@H]1CC[C@H]2[C@@H]3[C@H](O)C[C@@H]4C[C@H](O)CC[C@]4(C)[C@H]3C[C@H](O)[C@]12C`, the CC50 in the assay on HCT-116 was more than 50 µM.
`N#Cc1nc2c(nc1C#N)-c1ccccc1C2=O` yielded an IC50 in assay [3] of 3.5 µM.
On to `C[C@@]12CCCc3coc(c31)C(=O)c1cc3c4c(cc(OS(=O)(=O)O)c3cc12)[C@@]12CCC[C@@]3(C)c5cc6c(OS(=O)(=O)O)ccc(O)c6cc5C(=O)[C@@](O)(OC1)[C@@]23O4`, for which the IC50 in assay [2] was more than 5 µM.
In assay [6], `CC(=O)O[C@H]1CC[C@]2(C)[C@H]3CC=C4[C@@H]5[C@@H](C)[C@H](C)CC[C@]5(C(=O)O)CC[C@@]4(C)[C@]3(C)CC[C@H]2C1(C)C` [O-ACETYLURSOLIC ACID] gave an IC50 of more than 50 µM.
In assay [3], `N#Cc1nc2c(nc1C#N)-c1ccc(O)cc1C2=O` gave an IC50 of 66 µM.
In assay [6], `C[C@H]1[C@H](C)CC[C@]2(C(=O)O)CC[C@]3(C)C(=CC[C@@H]4[C@@]5(C)C[C@@H](O)[C@H](O)[C@@](C)(CO)[C@@H]5CC[C@]43C)[C@H]12` [ASIATIC ACID] returned an IC50 of more than 50 µM.
The same measure, in the same setting: the value for `COC(=O)[C@]12CC[C@@H](C)[C@H](C)[C@H]1C1=CC[C@@H]3[C@@]4(C)CC[C@H](O)C(C)(C)[C@@H]4CC[C@@]3(C)[C@]1(C)CC2` [METHYL URSOLATE] was more than 50 µM.
